Source: patent publication US6706664B1, “Benzoxazole compounds, process for the preparation thereof and herbicides” (UBE Industries, Ltd., priority 1999, dated 2004)

What was measured:
Set-up in all cases: key: 0: normal development; 1: Less damaged; 2: Slightly damaged; 3: Moderately damaged; 4: Severely damaged; 5: All killed
blackgrass [1] = experiment: Foliar spread test for upland field; format: in vivo, Alopecurus aegualis; conditions: foliar spray 500 ppm, 3 weeks, rank vs non-treated
How it was run: (§1)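 Wettable powders at 500 ppm, with 0.5% surfactant, were sprayed uniformly over plants raised for roughly 2 weeks in glasshouse pots of volcanic ash soil. Herbicidal damage rated on a 0–5 scale (5 = all killed) after a further 3 weeks at an average 25 °C.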

barnyardgrass [2] = experiment: Soil treatment test for upland field; format: in vivo, Echinochloa crusgalli; conditions: 500 g/ha, glass house 25° C., 3 weeks
How it was run: (§2)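 Visual 0–5 damage rating recorded 3 weeks after a pre-emergence soil spray of 500 g/ha on seeded Ube alluvial soil, with plants held in a glasshouse near 25° C.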

morning glory = experiment: Foliar spread test for upland field; format: in vivo, Ipomoea spps.; conditions: foliar spray 500 ppm, 3 weeks, rank vs non-treated
How it was run: as §1

barnyardgrass [3] = experiment: Herbicidal test for paddy field; format: in vivo, Echinochloa crusgalli; conditions: paddy field pot, 500 g/ha dropwise at 1.5 leaf stage of barnyardgrass, 3 weeks, rank vs non-treated
How it was run: (§3)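 Scores ran from 0 (normal development) to 5 (all killed) against untreated pots, judged after 3 weeks in a glasshouse averaging 25° C. Compound, as wettable powder diluted in water with 0.05% surfactant, was applied dropwise into 3 cm-deep paddy water at 500 g/ha. Application was at the 1.5-leaf stage of barnyardgrass.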

livid amaranth [4] = experiment: Soil treatment test for upland field; format: in vivo, Amaranthus lividus; conditions: 500 g/ha, glass house 25° C., 3 weeks
How it was run: as §2

Large crabgrass = experiment: Soil treatment test for upland field; format: in vivo, Digitaria adscendens; conditions: 500 g/ha, glass house 25° C., 3 weeks
How it was run: as §2

annual bluegrass [5] = experiment: Soil treatment test for upland field; format: in vivo, Poa annua; conditions: 500 g/ha, glass house 25° C., 3 weeks
How it was run: as §2

annual bluegrass [6] = experiment: Foliar spread test for upland field; format: in vivo, Poa annua; conditions: foliar spray 500 ppm, 3 weeks, rank vs non-treated
How it was run: as §1

young rice plant = experiment: Herbicidal test for paddy field; format: in vivo; conditions: paddy field pot, 500 g/ha dropwise at 1.5 leaf stage of barnyardgrass, 3 weeks, rank vs non-treated
How it was run: as §3

livid amaranth [7] = experiment: Foliar spread test for upland field; format: in vivo, Amaranthus lividus; conditions: foliar spray 500 ppm, 3 weeks, rank vs non-treated
How it was run: as §1

blackgrass [8] = experiment: Soil treatment test for upland field; format: in vivo, Alopecurus aegualis; conditions: 500 g/ha, glass house 25° C., 3 weeks
How it was run: as §2

monochoria = experiment: Herbicidal test for paddy field; format: in vivo, Monochoria vaginalis; conditions: paddy field pot, 500 g/ha dropwise at 1.5 leaf stage of barnyardgrass, 3 weeks, rank vs non-treated
How it was run: as §3

common lambsquartes = experiment: Foliar spread test for upland field; format: in vivo, Chenopodium album; conditions: foliar spray 500 ppm, 3 weeks, rank vs non-treated
How it was run: as §1

solgum = experiment: Soil treatment test for upland field; format: in vivo; conditions: 500 g/ha, glass house 25° C., 3 weeks
How it was run: as §2

wheat = experiment: Soil treatment test for upland field; format: in vivo; conditions: 500 g/ha, glass house 25° C., 3 weeks
How it was run: as §2

sugar beat = experiment: Soil treatment test for upland field; format: in vivo; conditions: 500 g/ha, glass house 25° C., 3 weeks
How it was run: as §2

soybean = experiment: Soil treatment test for upland field; format: in vivo; conditions: 500 g/ha, glass house 25° C., 3 weeks
How it was run: as §2

cotton = experiment: Soil treatment test for upland field; format: in vivo; conditions: 500 g/ha, glass house 25° C., 3 weeks
How it was run: as §2

corn = experiment: Soil treatment test for upland field; format: in vivo; conditions: 500 g/ha, glass house 25° C., 3 weeks
How it was run: as §2

CCC(Oc1ccc(Cl)c(C(F)(F)F)c1)c1nc2cc(F)ccc2o1 (stereo not drawn) [Compound 441]
Effects Blackgrass (blackgrass [1]): 2
Effects Barnyardgrass (barnyardgrass [2]): 5
Effects Morning glory (morning glory): 1
Effect Barnyardgrass (barnyardgrass [3]): 5
Effects Livid amaranth (livid amaranth [4]): 5
Effects Large crabgrass (Large crabgrass): 5
Effects Annual bluegrass (annual bluegrass [5]): 5
Effects Annual bluegrass (annual bluegrass [6]): 1
Effect Young rice plant (young rice plant): 1
Effects Livid amaranth (livid amaranth [7]): 3
Effects Blackgrass (blackgrass [8]): 3
Effect Monochoria (monochoria): 5
Effects Common lambsquarters (common lambsquartes): 3
Effects Solgum (solgum): 1
Effects Wheat (wheat): 1
Effects Sugar beat (sugar beat): 5
Effects Soybean (soybean): 0
Effects Cotton (cotton): 0
Effects Corn (corn): 0

CCC(Oc1cccc(OC(F)(F)F)c1)c1nc2cc([N+](=O)[O-])ccc2o1 (stereo not drawn) [Compound 450]
Effects Blackgrass (blackgrass [1]): 3
Effects Barnyardgrass (barnyardgrass [2]): 5
Effects Morning glory (morning glory): 2
Effect Barnyardgrass (barnyardgrass [3]): 4
Effects Livid amaranth (livid amaranth [4]): 5
Effects Large crabgrass (Large crabgrass): 5
Effects Annual bluegrass (annual bluegrass [5]): 5
Effects Annual bluegrass (annual bluegrass [6]): 4
Effect Young rice plant (young rice plant): 1
Effects Livid amaranth (livid amaranth [7]): 4
Effects Blackgrass (blackgrass [8]): 5
Effect Monochoria (monochoria): 5
Effects Common lambsquarters (common lambsquartes): 4
Effects Solgum (solgum): 2
Effects Wheat (wheat): 1
Effects Sugar beat (sugar beat): 5
Effects Soybean (soybean): 1
Effects Cotton (cotton): 2
Effects Corn (corn): 2

CCCC(Oc1ccc(F)c(C(F)(F)F)c1)c1nc2cc(C#N)c(Cl)cc2o1 (stereo not drawn) [Compound 533]
Effects Blackgrass (blackgrass [1]): 3
Effects Barnyardgrass (barnyardgrass [2]): 3
Effects Morning glory (morning glory): 5
Effect Barnyardgrass (barnyardgrass [3]): 5
Effects Livid amaranth (livid amaranth [4]): 5
Effects Large crabgrass (Large crabgrass): 5
Effects Annual bluegrass (annual bluegrass [5]): 4
Effects Annual bluegrass (annual bluegrass [6]): 4
Effect Young rice plant (young rice plant): 2
Effects Livid amaranth (livid amaranth [7]): 5
Effects Blackgrass (blackgrass [8]): 4
Effect Monochoria (monochoria): 4
Effects Common lambsquarters (common lambsquartes): 4
Effects Solgum (solgum): 0
Effects Wheat (wheat): 1
Effects Sugar beat (sugar beat): 5
Effects Soybean (soybean): 0
Effects Cotton (cotton): 0
Effects Corn (corn): 0
